Reference: article PMC7201284, “A complete compendium of crystal structures for the human SEPT3 subgroup reveals functional plasticity at a specific septin interface” (IUCrJ, 2020)

How the values were obtained:
Assay in all cases: X-ray crystallography, co-crystallization
SEPT3α0G = molecular target: T1, SEPT3α0G (Homo sapiens, UniProt Q9UH03); conditions: 1.83 Å; Mg2+ in active site; nucleotide-binding site at G interface
T1 construct: gene SEPTIN3; G domain plus polybasic helix α0, residues 43-330; expressed and purified as in Macedo et al. 2013; monomer in solution; homotypic G-interface dimers in crystal

SEPT9GC = molecular target: T2, SEPT9GC (Homo sapiens, UniProt Q9UHD8); conditions: about 2.0 Å; Mg2+; nucleotide-binding site at G interface
T2 construct: gene SEPTIN9; G domain plus C-terminal region, residues 279-568, pET-28a(+) His-tag, E. coli Rosetta (DE3); monomer about 38 kDa; purified nucleotide-free
T2 sequence (Q9UHD8 279-568): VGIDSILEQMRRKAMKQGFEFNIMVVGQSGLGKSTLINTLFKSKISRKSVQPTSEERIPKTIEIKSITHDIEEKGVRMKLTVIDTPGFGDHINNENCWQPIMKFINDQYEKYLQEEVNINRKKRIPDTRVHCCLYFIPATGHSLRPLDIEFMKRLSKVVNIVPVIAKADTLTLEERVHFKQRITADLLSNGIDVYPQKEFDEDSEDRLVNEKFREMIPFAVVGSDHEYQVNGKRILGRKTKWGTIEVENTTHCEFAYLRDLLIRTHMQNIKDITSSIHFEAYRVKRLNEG

SEPT12G = molecular target: T3, SEPT12G (Homo sapiens, UniProt Q8IYM1); conditions: Mg2+, nucleotide-binding site
T3 construct: gene SEPTIN12; G domain, residues 47-320, pET-28a(+) His-tag, E. coli Rosetta (DE3); monomer about 32 kDa
T3 sequence (Q8IYM1 47-320): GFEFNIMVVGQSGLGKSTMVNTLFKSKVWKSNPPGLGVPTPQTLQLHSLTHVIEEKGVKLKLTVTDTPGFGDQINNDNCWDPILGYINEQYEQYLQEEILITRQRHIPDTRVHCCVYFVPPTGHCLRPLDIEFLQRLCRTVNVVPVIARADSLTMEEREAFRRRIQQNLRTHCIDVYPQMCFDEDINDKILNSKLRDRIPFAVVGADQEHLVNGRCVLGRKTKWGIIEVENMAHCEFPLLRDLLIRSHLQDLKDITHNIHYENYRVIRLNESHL

SEPT3G = molecular target: T4, SEPT3G (Homo sapiens, UniProt Q9UH03); conditions: 1.86 Å; Mg2+; nucleotide-binding site; b26 labels 4z51 as GTPγS but methods, Table 2 and results say GMPPNP
T4 construct: gene SEPTIN3; G domain without helix α0, residues 59-330; expressed and purified as in Macedo et al. 2013; monomer in solution; homotypic G-interface dimers in crystal
T4 sequence (Q9UH03 59-330): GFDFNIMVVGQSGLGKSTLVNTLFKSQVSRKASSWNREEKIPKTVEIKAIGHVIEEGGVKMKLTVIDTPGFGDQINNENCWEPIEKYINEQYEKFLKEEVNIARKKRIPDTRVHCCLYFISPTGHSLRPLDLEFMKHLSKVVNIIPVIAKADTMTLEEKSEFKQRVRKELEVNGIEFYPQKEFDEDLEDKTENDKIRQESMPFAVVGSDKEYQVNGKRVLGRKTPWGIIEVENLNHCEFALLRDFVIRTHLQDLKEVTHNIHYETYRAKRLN

T1 sequence (Q9UH03 43-330): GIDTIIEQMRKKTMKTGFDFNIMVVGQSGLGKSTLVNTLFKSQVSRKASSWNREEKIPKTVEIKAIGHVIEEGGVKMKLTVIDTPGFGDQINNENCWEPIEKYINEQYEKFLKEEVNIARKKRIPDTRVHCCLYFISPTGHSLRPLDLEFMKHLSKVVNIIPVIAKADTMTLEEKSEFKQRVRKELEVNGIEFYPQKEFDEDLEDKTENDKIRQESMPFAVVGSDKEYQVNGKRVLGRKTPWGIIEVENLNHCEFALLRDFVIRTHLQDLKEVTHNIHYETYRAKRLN

Row | Compound | X-ray crystallography, co-crystallization (SEPT3α0G) | X-ray crystallography, co-crystallization (SEPT9GC) | X-ray crystallography, co-crystallization (SEPT12G; 2.19 Å, small quantity of GDP also co-purified) | X-ray crystallography, co-crystallization (SEPT3G) | X-ray crystallography, co-crystallization (SEPT12G; 1.86 Å (P1, 6mq9) and 2.12 Å (C2221, 6mqb))
1 | Nc1nc2c(ncn2[C@@H]2O[C@H](COP(=O)(O)OP(=O)(O)O)[C@@H](O)[C@H]2O)c(=O)[nH]1 [GDP] | structures of the G domain of SEPT3 complexed with either GDP or the GTP mimetic GMPPNP | The structure of SEPT9GC–GDP (PDB entry 5cyo) has a G-interface dimer in the asymmetric unit | In SEPT12G–GDP (PDB entry 6mqk) the metal ion is canonically coordinated by Thr89, Ser63 |  | 
2 | Nc1nc2c(ncn2[C@@H]2O[C@H](COP(=O)(O)OP(=O)(O)NP(=O)(O)O)[C@@H](O)[C@H]2O)c(=O)[nH]1 [GMPPNP] |  |  |  | The SEPT3G–GMPPNP complex (PDB entry 4z51) has only one monomer per asymmetric unit | Two structures were obtained in the presence of GMPPNP
